Measured values taken from paper PMC3720659, “Integrated Analysis of Drug-Induced Gene Expression Profiles Predicts Novel hERG Inhibitors” (PLoS ONE, 2013).

Target: T1, hERG channel (Homo sapiens, UniProt Q12809)
Experiment: not given
Conditions: not given; call rule not given here

T1 sequence (Q12809 whole entry): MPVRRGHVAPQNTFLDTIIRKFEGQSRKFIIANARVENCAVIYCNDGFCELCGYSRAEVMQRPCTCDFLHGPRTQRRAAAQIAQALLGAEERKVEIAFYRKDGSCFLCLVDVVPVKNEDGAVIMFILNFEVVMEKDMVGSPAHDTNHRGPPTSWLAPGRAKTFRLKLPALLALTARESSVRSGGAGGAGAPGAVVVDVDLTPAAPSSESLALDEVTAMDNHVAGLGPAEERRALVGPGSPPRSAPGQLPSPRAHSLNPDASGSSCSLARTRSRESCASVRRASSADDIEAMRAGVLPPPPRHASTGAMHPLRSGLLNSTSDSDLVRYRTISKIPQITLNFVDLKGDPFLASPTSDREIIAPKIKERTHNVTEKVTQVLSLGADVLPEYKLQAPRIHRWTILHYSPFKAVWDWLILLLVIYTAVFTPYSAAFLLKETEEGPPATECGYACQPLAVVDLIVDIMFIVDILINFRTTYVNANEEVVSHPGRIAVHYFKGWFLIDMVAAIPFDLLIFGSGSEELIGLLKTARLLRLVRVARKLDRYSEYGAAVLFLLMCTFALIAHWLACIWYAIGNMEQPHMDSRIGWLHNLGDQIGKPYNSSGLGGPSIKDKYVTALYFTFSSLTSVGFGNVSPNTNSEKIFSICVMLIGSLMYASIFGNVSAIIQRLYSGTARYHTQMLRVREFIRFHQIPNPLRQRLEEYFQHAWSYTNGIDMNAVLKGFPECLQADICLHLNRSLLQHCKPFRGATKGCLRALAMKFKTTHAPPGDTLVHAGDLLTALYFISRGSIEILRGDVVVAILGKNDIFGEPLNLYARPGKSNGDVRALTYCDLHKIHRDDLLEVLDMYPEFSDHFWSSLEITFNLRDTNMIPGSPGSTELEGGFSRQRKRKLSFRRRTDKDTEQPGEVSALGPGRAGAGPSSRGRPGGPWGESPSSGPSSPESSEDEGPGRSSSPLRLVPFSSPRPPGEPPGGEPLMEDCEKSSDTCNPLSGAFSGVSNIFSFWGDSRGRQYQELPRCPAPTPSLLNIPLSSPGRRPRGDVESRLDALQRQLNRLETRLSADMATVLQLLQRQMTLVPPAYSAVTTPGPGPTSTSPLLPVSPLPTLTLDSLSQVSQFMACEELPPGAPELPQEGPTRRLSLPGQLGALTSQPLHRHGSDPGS

Compound	Behaviour during hERG electrophysiology recording
CCCCC(CC)CN1CN(CC(CC)CCCC)CC(C)(N)C1 (stereo not drawn) [Hexetidine]	appears to disrupt the membrane seal during recording

Target: T1, hERG channel
Experiment: cell-based
Conditions: not given

Compound	IC50
Clc1ccc(C(OCCN2CCCCC2)c2ccccc2)cc1 (stereo not drawn) [Cloperastine]	0.36 ± 0.05 µM
CC(NCCC(c1ccccc1)c1ccccc1)c1ccccc1 (stereo not drawn) [Fendiline, reference compound]	2.6 ± 0.1 µM

System: hERG current
Experiment: not given
Conditions: annotation of the drug; Cell Line (HL60, MCF7, PC3) is the cell line of the drug-induced expression profile, not of the hERG assay; ref hERGcentral; cited from earlier work

Compound	Annotation (hERG inhibition class, Active/Inactive by IC50)
COc1c(O[C@@H]2O[C@H](CO)[C@@H](O)[C@H](O)[C@H]2O)cc2c(c1OC)-c1ccc(SC)c(=O)cc1[C@@H](NC(C)=O)CC2 [thiocolchicoside]	Inactive
Nc1nc2c(ncn2[C@@H]2O[C@H](CO)[C@@H](O)[C@H]2O)c(=S)[nH]1 [thioguanosine]	Inactive
CC(C(=O)O)c1ccc(C(=O)c2ccccc2)s1 (stereo not drawn) [tiaprofenic acid]	Inactive
Cc1ccc(S(=O)(=O)NC(=O)NN2CCCCCC2)cc1 [tolazamide]	Inactive
c1ccc(CC2=NCCN2)cc1 [tolazoline]	Inactive
CCCCNC(=O)NS(=O)(=O)c1ccc(C)cc1 [tolbutamide]	Inactive
Cc1c(Cl)cccc1Nc1ccccc1C(=O)O [tolfenamic acid]	Inactive
Cc1cccc(N(C)C(=S)Oc2ccc3ccccc3c2)c1 [tolnaftate]	Inactive
CCCCNc1c(C(=O)OCC)c(C)nc2c1cnn2CC [tracazolate]	Inactive
O=c1[nH]c(=O)n([C@H]2C[C@H](O)[C@@H](CO)O2)cc1C(F)(F)F [trifluridine]	Inactive
COc1cc(Cc2cnc(N)nc2N)cc(OC)c1OC [trimethoprim]	Inactive
Cc1ccc(/C(=C\CN2CCCC2)c2ccccn2)cc1 [triprolidine]	Active
Nc1ncnc2c1ncn2[C@@H]1O[C@H](CO)[C@@H](O)[C@@H]1O [vidarabine]	Inactive
COC(=O)[C@@H]1[C@H]2C[C@H]3c4[nH]c5ccccc5c4CCN3C[C@@H]2CC[C@@H]1O [yohimbine]	Active
OCCN1CCN(CC/C=C2/c3ccccc3Sc3ccc(Cl)cc32)CC1 [zuclopenthixol]	Active
rifabutin	Inactive
triamcinolone	Inactive

Same assay, conditions: cited from earlier work

Compound	Annotation (hERG Active / Inactive)	hERG inhibition call in the high-throughput electrophysiology assay	Annotation (hERG inhibition class, Active/Inactive by IC50)
OC(c1cc(C(F)(F)F)nc2c(C(F)(F)F)cccc12)C1CCCCN1 (stereo not drawn) [Mefloquine, reference compound]	Inactive	inactive	–
Cc1ccc(C(=O)c2ccc(CC(=O)O)n2C)cc1 [tolmetin]	–	–	Inactive
Nc1nc(N)c2nc(-c3ccccc3)c(N)nc2n1 [triamterene]	–	–	Inactive
atovaquone	Inactive	–	–
diethylstilbestrol	Inactive	–	–

Same assay, conditions: hERG annotation of the drug; the Cell Line (HL60, MCF7, PC3) names the expression profile, not the hERG test; cited from earlier work

Compound	Annotation (hERG Active / Inactive)
adenosine phosphate	Inactive
diphenylpyraline	Inactive
doxycycline	Inactive
estrone	Inactive
felodipine	Inactive

Same assay, conditions: hERG inhibition annotation of the drug; the Cell Line (HL60, MCF7, PC3) is the cell line of the expression profile, not of the hERG test; cited from earlier work

Compound	Annotation (hERG Active / Inactive)
Clc1ccc(COC(Cn2ccnc2)c2ccc(Cl)cc2Cl)c(Cl)c1 (stereo not drawn) [Miconazole, reference compound]	Inactive
fluticasone	Inactive
hydrocortisone	Inactive
isometheptene	Inactive
meglumine	Inactive
minocycline	Inactive
mometasone	Inactive
naloxone	Active
nitrendipine	Inactive
prednisolone	Inactive

Same assay, conditions: inhibitor means 50% or more decrease of hERG current at 10 µM; acute recording; cited from earlier work

Compound	hERG inhibition call in the high-throughput electrophysiology assay
Clc1ccc2c(c1)C(N1CCNCC1)=Nc1ccccc1O2 [Amoxapine, reference compound]	negatives
Clc1ccc(COC(Cn2ccnc2)c2ccc(Cl)cc2Cl)c(Cl)c1 (stereo not drawn) [Miconazole, reference compound]	inactive

System: recombinantly expressed hERG channels
Experiment: not given
Conditions: cited from earlier work

Compound	Inhibition of hERG channels recombinantly expressed in cell lines
OC(c1cc(C(F)(F)F)nc2c(C(F)(F)F)cccc12)C1CCCCN1 (stereo not drawn) [Mefloquine, reference compound]	inhibit
Clc1ccc(COC(Cn2ccnc2)c2ccc(Cl)cc2Cl)c(Cl)c1 (stereo not drawn) [Miconazole, reference compound]	inhibit

Same assay, conditions: read-out: IC50 for inhibition of the current of recombinantly expressed hERG channels; cited from earlier work

Compound	IC50
CCN(CC)CCOc1ccc(C(=C(Cl)c2ccccc2)c2ccccc2)cc1 [Clomiphene]	0.18 µM

System: not given
Experiment: not given
Conditions: drug on LQT Drug List; the Cell Line (HL60, MCF7, PC3) is the cell line of the expression profile; cited from earlier work

Compound	Annotation (LQT Drug)
OCCN1CCN(CCCN2c3ccccc3Sc3ccc(C(F)(F)F)cc32)CC1 [fluphenazine]	LQT Drug
COC1=C2C[C@@H](C)C[C@H](OC)[C@H](O)[C@@H](C)/C=C(\C)[C@H](OC(N)=O)[C@@H](OC)/C=C\C=C(/C)C(=O)NC(=CC1=O)C2=O [geldanamycin]	LQT Drug
CC1Cc2ccccc2N1NC(=O)c1ccc(Cl)c(S(N)(=O)=O)c1 (stereo not drawn) [indapamide]	LQT Drug
CC(=O)N1CCN(c2ccc(OCC3COC(Cn4ccnc4)(c4ccc(Cl)cc4Cl)O3)cc2)CC1 (stereo not drawn) [ketoconazole]	LQT Drug
CNCCCC12CCC(c3ccccc31)c1ccccc12 [maprotiline]	LQT Drug
Cc1cccc(C)c1OCC(C)N (stereo not drawn) [mexiletine]	LQT Drug
CNCCC=C1c2ccccc2CCc2ccccc21 [nortriptyline]	LQT Drug
CC1COc2c(N3CCN(C)CC3)c(F)cc3c(=O)c(C(=O)O)cn1c23 (stereo not drawn) [ofloxacin]	LQT Drug
CC(Cc1ccccc1)NCCC(c1ccccc1)c1ccccc1 (stereo not drawn) [prenylamine]	LQT Drug

Same assay, conditions: on LQT Drug List; the Cell Line (HL60, MCF7, PC3) names the expression profile; cited from earlier work

Compound	Annotation (LQT Drug)
Clc1ccc2c(c1)C(N1CCNCC1)=Nc1ccccc1O2 [Amoxapine, reference compound]	LQT Drug
COc1cc2nc(N(C)CCCNC(=O)C3CCCO3)nc(N)c2cc1OC (stereo not drawn) [alfuzosin]	LQT Drug
NC12CC3CC(CC(C3)C1)C2 [amantadine]	LQT Drug
CN(C)CCC=C1c2ccccc2CCc2ccccc21 [amitriptyline]	LQT Drug
CCN(CC)CCCC(C)Nc1ccnc2cc(Cl)ccc12 (stereo not drawn) [chloroquine]	LQT Drug
CNCCCN1c2ccccc2CCc2ccccc21 [desipramine]	LQT Drug
CC(CCc1ccc(O)cc1)NCCc1ccc(O)c(O)c1 (stereo not drawn) [dobutamine]	LQT Drug

Same assay, conditions: previous literature; not in the LQT drug lists used; cited from earlier work

Compound	Association with drug-induced LQT
CC(NCCC(c1ccccc1)c1ccccc1)c1ccccc1 (stereo not drawn) [Fendiline, reference compound]	drug-induced LQT
